Values quoted from earlier work as cited in PubChem BioAssay AID1259409 (Chemical Carcinogenesis Research Information System (CCRIS), 2018).

Tested on: rodent chemically induced tumor inhibition, incidence and multiplicity
Assay: CCRIS tumor inhibitor studies

COc1cc(/C=C/C(=O)O)ccc1O
tumour outcome (control, treated, inhibition, significance) (Carcinogen: AZOXYMETHANE [25843-45-2], Dose [Inhibitor]: 0, 500 PPM IN DIET FOR 23 WK BEGINNING POST LAST CARCINOGEN DOSE (STUDY DURATION: 35 WK), Route [Inhibitor]: ORAL, Species: RAT, Strain/Sex: F344/MALE, Target Tissue: Type of Lesion: LARGE INTESTINE: TUMOR, Dose [Carcinogen]: 15 MG/KG 3X/WK FOR 12 WK (STUDY DURATION: 35 WK), Promoter: NONE): 11%, 32%, -190%, not significant
tumour outcome (control, treated, inhibition, significance) (Carcinogen: AZOXYMETHANE [25843-45-2], Dose [Inhibitor]: 0, 500 PPM IN DIET FOR 23 WK BEGINNING POST LAST CARCINOGEN DOSE (STUDY DURATION: 35 WK), Route [Inhibitor]: ORAL, Species: RAT, Strain/Sex: F344/MALE, Target Tissue: Type of Lesion: SMALL INTESTINE: TUMOR, Dose [Carcinogen]: 15 MG/KG 3X/WK FOR 12 WK (STUDY DURATION: 35 WK), Promoter: NONE): 18%, 27%, -50%, not significant
tumour outcome (control, treated, inhibition, significance) (Carcinogen: AZOXYMETHANE [25843-45-2], Dose [Inhibitor]: 250 PPM IN DIET FOR 4 WK BEGINNING 1 WK PRIOR TO FIRST CARCINOGEN DOSE (STUDY DURATION: 35 WK), Route [Inhibitor]: ORAL, Species: RAT, Strain/Sex: F344/MALE, Target Tissue: Type of Lesion: LARGE INTESTINE: TUMOR, Dose [Carcinogen]: 15 MG/KG 1X/WK FOR 3 WK (STUDY DURATION: 35 WK), Promoter: NONE): 59%, 32%, 46%, not significant
tumour outcome (control, treated, inhibition, significance) (Carcinogen: AZOXYMETHANE [25843-45-2], Dose [Inhibitor]: 250 PPM IN DIET FOR 4 WK BEGINNING 1 WK PRIOR TO FIRST CARCINOGEN DOSE (STUDY DURATION: 35 WK), Route [Inhibitor]: ORAL, Species: RAT, Strain/Sex: F344/MALE, Target Tissue: Type of Lesion: SMALL INTESTINE: TUMOR, Dose [Carcinogen]: 15 MG/KG 1X/WK FOR 3 WK (STUDY DURATION: 35 WK), Promoter: NONE): 23%, 5%, 78%, not significant
tumour outcome (control, treated, inhibition, significance) (Carcinogen: AZOXYMETHANE [25843-45-2], Dose [Inhibitor]: 250 PPM IN DIET FOR 31 WK BEGINNING 1 WK POST LAST CARCINOGEN DOSE (STUDY DURATION: 35 WK), Route [Inhibitor]: ORAL, Species: RAT, Strain/Sex: F344/MALE, Target Tissue: Type of Lesion: LARGE INTESTINE: TUMOR, Dose [Carcinogen]: 15 MG/KG 1X/WK FOR 3 WK (STUDY DURATION: 35 WK), Promoter: NONE): 59%, 41%, 31%, not significant
tumour outcome (control, treated, inhibition, significance) (Carcinogen: AZOXYMETHANE [25843-45-2], Dose [Inhibitor]: 250 PPM IN DIET FOR 31 WK BEGINNING 1 WK POST LAST CARCINOGEN DOSE (STUDY DURATION: 35 WK), Route [Inhibitor]: ORAL, Species: RAT, Strain/Sex: F344/MALE, Target Tissue: Type of Lesion: SMALL INTESTINE: TUMOR, Dose [Carcinogen]: 15 MG/KG 1X/WK FOR 3 WK (STUDY DURATION: 35 WK), Promoter: NONE): 23%, 23%, 0%, not significant
tumour outcome (control, treated, inhibition, significance) (Carcinogen: AZOXYMETHANE [25843-45-2], Dose [Inhibitor]: 500 PPM IN DIET FOR 4 WK BEGINNING 1 WK PRIOR TO FIRST CARCINOGEN DOSE (STUDY DURATION: 35 WK), Route [Inhibitor]: ORAL, Species: RAT, Strain/Sex: F344/MALE, Target Tissue: Type of Lesion: LARGE INTESTINE: TUMOR, Dose [Carcinogen]: 15 MG/KG 1X/WK FOR 3 WK (STUDY DURATION: 35 WK), Promoter: NONE): 59%, 32%, 46%, not significant
tumour outcome (control, treated, inhibition, significance) (Carcinogen: AZOXYMETHANE [25843-45-2], Dose [Inhibitor]: 500 PPM IN DIET FOR 4 WK BEGINNING 1 WK PRIOR TO FIRST CARCINOGEN DOSE (STUDY DURATION: 35 WK), Route [Inhibitor]: ORAL, Species: RAT, Strain/Sex: F344/MALE, Target Tissue: Type of Lesion: SMALL INTESTINE: TUMOR, Dose [Carcinogen]: 15 MG/KG 1X/WK FOR 3 WK (STUDY DURATION: 35 WK), Promoter: NONE): 23%, 5%, 78%, not significant
tumour outcome (control, treated, inhibition, significance) (Carcinogen: AZOXYMETHANE [25843-45-2], Dose [Inhibitor]: 500 PPM IN DIET FOR 31 WK BEGINNING 1 WK POST LAST CARCINOGEN DOSE (STUDY DURATION: 35 WK), Route [Inhibitor]: ORAL, Species: RAT, Strain/Sex: F344/MALE, Target Tissue: Type of Lesion: LARGE INTESTINE: TUMOR, Dose [Carcinogen]: 15 MG/KG 1X/WK FOR 3 WK (STUDY DURATION: 35 WK), Promoter: NONE): 59%, 36%, 39%, not significant
tumour outcome (control, treated, inhibition, significance) (Carcinogen: AZOXYMETHANE [25843-45-2], Dose [Inhibitor]: 500 PPM IN DIET FOR 31 WK BEGINNING 1 WK POST LAST CARCINOGEN DOSE (STUDY DURATION: 35 WK), Route [Inhibitor]: ORAL, Species: RAT, Strain/Sex: F344/MALE, Target Tissue: Type of Lesion: SMALL INTESTINE: TUMOR, Dose [Carcinogen]: 15 MG/KG 1X/WK FOR 3 WK (STUDY DURATION: 35 WK), Promoter: NONE): 23%, 27%, -17%, not significant
tumour outcome (control, treated, inhibition, significance) (Carcinogen: BENZO[A]PYRENE, 50-32-8, Dose [Inhibitor]: 0.06 MMOL/G OF DIET DAILY STARTING 8 D BEFORE AND CONTINUING THROUGH 3 D AFTER CARCINOGEN TREATMENT FOLLOWED BY OBSERVAT, Route [Inhibitor]: ORAL, Species: MOUSE, Strain/Sex: ICR/FEMALE, Target Tissue: Type of Lesion: FORESTOMACH: NEOPLASM, Dose [Carcinogen]: 1 MG IN 0.2 ML CORN OIL 2/WK FOR 4 WK, Promoter: NONE USED): 100%, 90%, 10%, not significant
tumour outcome (control, treated, inhibition, significance) (Carcinogen: BENZO[A]PYRENE, 50-32-8, Dose [Inhibitor]: 100 MG/KG ADMINISTERED 1 HR BEFORE AND 6, 24, 48 AND 72 HR AFTER BENZO[A]PYRENE TREATMENT (STUDY DURATION: 6 MO), Route [Inhibitor]: INTRAPERITONEAL, Species: MOUSE, Strain/Sex: STRAIN-A/MALE, Target Tissue: Type of Lesion: LUNG: ADENOMA, Dose [Carcinogen]: 100 MG/KG ONCE, Promoter: NONE USED): 18/18 (100%), 18/18 (100%), 0%, not significant
tumour outcome (control, treated, inhibition, significance) (Carcinogen: BENZO[A]PYRENE, 50-32-8, Dose [Inhibitor]: 100 MG/KG ADMINISTERED 1 HR BEFORE AND 6, 24, 48 AND 72 HR AFTER CARCINOGEN TREATMENT FOLLOWED BY 6 MO OBSERVATION PERIO, Route [Inhibitor]: INTRAPERITONEAL, Species: MOUSE, Strain/Sex: STRAIN A/MALE, Target Tissue: Type of Lesion: LUNG: ADENOMA, Dose [Carcinogen]: 100 MG/KG ONCE, Promoter: NONE USED): 18/18 (100%), 18/18 (100%), 0%, not significant
tumour outcome (control, treated, inhibition, significance) (Carcinogen: N-NITROQUINOLINE-1-OXIDE, 56-57-5, Dose [Inhibitor]: 0, 500 PPM IN DIET FOR 7 WK BEGINNING 1 WK PRIOR TO START OF CARCINOGEN TREATMENT (STUDY DURATION: 32 WK), Route [Inhibitor]: ORAL, Species: RAT, Strain/Sex: F344\MALE, Target Tissue: Type of Lesion: TONGUE: CARCINOMA, Dose [Carcinogen]: 20 PPM IN DRINKING WATER FOR 5 WK, Promoter: NONE USED): 9/15 (60%), 1/14 (7%), 88%, p=0.0035
